Consider one molecule from patent US20170315129A1, “CANCER CELL DETECTION METHOD USING LIVING BODY-DERIVED CELLS OF BIOLOGICAL ORIGIN” (Hirosaki University, priority 2014, published 2017).

Entries after “also recorded” stand apart in the source; their conditions may differ.

For test [1], the system named is ascites cells obtained during an operation of a patient with endometrial cancer (endometrioid adenocarcinoma). Kind of test: Live-cell fluorescence imaging of ascites cells, endometrial cancer patient, with later Papanicolaou staining (Example 2). Format: cell-based, human. The procedure: Immediately after the start of laparotomy for endometrial cancer (endometrioid adenocarcinoma), the peritoneal cavity was washed with physiological saline in the same manner as in Example 1 to obtain a peritoneal washing, which was then added to a 50 mL centrifuge tube having 5 mL of the Hanks solution in advance. The resulting ascitic fluid suspension was centrifuged at […] for 2 minutes at room temperature, and the supernatant was removed by decantation. Subsequently, 30 mL of a commercially available solution of ammonium chloride for hemolysis was added, and allowed to stand for 2 minutes, and then centrifuged at 1500 G for 2 minutes at room temperature, and the supernatant was then removed by decantation. Some of the resulting pellet was set aside for cytodiagnosis tests at the hospital's pathology department, and the rest was further divided into 2 portions, each of which was dispersed into 40 mL of a KRB solution in 50 mL centrifuge tubes, and stored at room temperature an a dark place until application of fLG on the next day. […]
Observation and image acquisition were performed about 22 hours after obtaining ascites cells using the same instruments as in Example 1. […] Subsequently, a bright-field image and fluorescence images of the target cells were obtained using a high-power lens, and positional information on the stage was registered using a software dedicated for BZ-X700. […]

Test [2] deals with cells in peritoneal washing obtained during an operation of a patient with endometrial cancer (endometrial endometrioid adenocarcinoma). Nature of the test: Live-cell fluorescence imaging by perfusion, cells in peritoneal washing, endometrial cancer patient (Example 5). Format: cell-based, human. Particulars: cell clusters a and b (apparent mesothelial cells and apparent macrophage cells); perfusion 100 μM 2-NBDLG and 20 μM 2TRLG; FIG. 11A/11B, 12D. The method, then:
A peritoneal washing obtained immediately after the start of laparotomy for endometrial cancer (endometrial endometrioid adenocarcinoma) in the same manner as in Example 1 was added to a 50 mL centrifuge tube having 5 mL of the Hanks solution in advance. Fibrin, fat, and impurities were removed from the ascitic fluid suspension in the same manner as in Example 4. Subsequently, a half of it was dispensed into a 50 mL centrifuge tube, and centrifuged at 1500 G for 2 minutes at room temperature. The supernatant was processed in the same manner as in Example 4 to obtain 1 mL of an ascites-cell suspension. • (2) Adhesion of Ascites Cells on Glass Plate by Centrifugation, and Method of Maintaining Cell Viability
The ascites-cell suspension in an amount of 1 mL taken at (1) was transferred to a plastic chamber dedicateded for CF-12D as in Example 4. The ascites cells were allowed to attach on a glass plate by centrifugation at 1400 rpm for 1 minute at room temperature. The plate was then treated as in Example 4, and stored in a moisture chamber until being mounted on the perfusion stage. • (3) Attachment of Glass Plate on Perfusion Stage and Perfusion […]
It was performed as in Example 4. Only a green fluorescence image was taken before administration of the fluorescently labeled L-glucose derivative. […]

A further test relates to glucose transporter GLUT. Particulars: cited from earlier work.

As for `O=C[C@@H](Nc1ccc([N+](=O)[O-])c2nonc12)[C@H](O)[C@@H](O)[C@@H](O)CO` [2-NBDLG, 2-[N-(7-nitrobenz-2-oxa-1,3-diazole-4-yl)amino]-2-deoxy-L-glucose], the “intracellular localisation of 2-NBDLG uptake” value in test [1] (Cluster 1, FIG. 4A) is on record as “taken up into the cytoplasmic portion except for the nucleus”. Besides, in test [1] (two cancer-cell clusters (left cluster and Cluster 1), 100 μM 2-NBDLG and 20 μM 2TRLG, fLG applied about 20 hours after sampling, FIG. 3B, 4D), the “fluorescence from 2-NBDLG (green wavelength region)” value is given as “show fluorescence; also recorded: positive”. The “fluorescence from 2-NBDLG (green wavelength region), after vs before application” value in test [2] is given as “Neither the cell cluster a nor b shows fluorescence; also recorded: negative”. The “binding to glucose transporter GLUT” value with glucose transporter GLUT was “does not bind”.
